Data set [1] concerns Methicillin-sensitive Staphylococcus aureus (MSSA) CGMCC 1.89. Briefly: Inhibition-zone antimicrobial assay. In kind it is cell-based. The note with it: 1 nmol/well.
Data set [2] deals with S15 DNA (15-bp fragment derived from the MRE motif CES11D1). Briefly: Electrophoretic mobility shift assay (EMSA). The note with it: 5 µM annealed double strand S15, DvirARP 2, 4 or 8 µM, room temperature 20 min, 6% native polyacrylamide, ethidium bromide staining. In kind it is binding. For orientation: Mobility shift assays separate free from complexed probe on a gel.
Data set [3] is described as follows: Variable temperature CD spectroscopy. Type of data set: physicochemical. The note with it: 10 to 65 °C, oxidized product, 5 mM PB pH 7.0. The procedure: For CD analysis, a peptide sample was dissolved in 5 mM phosphate buffer (PB, pH7.0) with a concentration of 0.1–0.2 mg/mL. CD spectra were measured on the Chirascan Plus spectropolarimeter v.4.4.0 (Applied Photophysics Ltd, UK) by using a quartz cell of 1.0 mm thickness. The wavelengths used ranged from 190 to 260 nm. Data were collected at 1 nm intervals with a scan rate of 0.5 s per point and expressed as delta epsilon (cm^-1M^-1). Delta epsilon was calculated as [θ×(MRW×0.1)/(C×L)/3298], where θ is the ellipticity (in millidegrees), C is the concentration (in mg/mL), L is the path length (in cm), and MRW is the mean residue weight (in Da).
Fig. 4 Experiment data-guided structural model of DvirARP built by comparative modelling. (A) Comparison of CD spectra of reduced and oxidized DvirARP in 5 mM PB buffer (pH7.0). Signature bands for the presence of cation–π and 3_10-helix are denoted by arrows. (B) Thermal denaturation curves of the oxidized product at indicated temperatures. (C) Sequence comparison between DvirARP and the template MSL2 CXC (residues 542–559). Identical and conserved residues are shadowed in yellow and grey, respectively. Residues involved in cation–π interactions are underlined twice. The predicted secondary structure element and disulfide bridges are extracted from the experiment-based computational model. […] (E) The cation–π interaction on the DvirARP structure. […]

The test system of data set [4] is Bacillus megaterium CGMCC 1.0459.
For data set [5], the system named is Micrococcus luteus CGMCC 1.0290.

This note sets out measurements from PMC11116330, “The evolutionary novelty of insect defensins: from bacterial killing to toxin neutralization” (Cellular and Molecular Life Sciences: CMLS, 2024).

Read-outs that look alike come from different tables or passages of the source. Positions of bridges follow the written chain, without caps; N, C: chain ends. Residues, ends and D or L forms follow the SMILES beside them.

Turning to `CC[C@H](C)[C@H](NC(=O)[C@H](C)NC(=O)[C@H](CC(N)=O)NC(=O)[C@H](CCCNC(=N)N)NC(=O)[C@H](C)NC(=O)[C@H](CCCNC(=N)N)NC(=O)[C@H](CCCNC(=N)N)NC(=O)[C@H](Cc1ccc(O)cc1)NC(=O)[C@@H]1CSSC[C@H](NC(=O)[C@@H](NC(=O)[C@H](C)N)C(C)C)C(=O)N[C@@H](CCCNC(=N)N)C(=O)N1)C(=O)N[C@H](C(=O)N[C@H]1CSSC[C@@H](C(=O)N[C@@H](CCCNC(=N)N)C(=O)O)NC(=O)[C@H](Cc2ccc(O)cc2)NC1=O)C(C)C` [DvirARP] (H-AVCRCYRRARNAIVCYCR-OH; disulfide 3-5, 15-17; N-terminus and C-terminus assumed), the “Antibacterial activity in inhibition zone assay against S. aureus CGMCC 1.89” value in data set [1] (peptide dissolved in 50% haemolymph serum from DvWT female adults), in data set [1] (peptide dissolved in 50% haemolymph serum from DvdelARP female adults) and in data set [1] (peptide dissolved in insect saline (pH 7.2)) was “no detectable antibacterial activity” in each case. In addition, the “Binding of S15 DNA fragment (EMSA)” value in data set [2] was “not able to bind”. Also, the “CD signature band around 230 nm (cation–π interaction) with temperature” value in data set [3] is on record as “decreased with the temperature increase”. The “CD signature band at 206 nm (3_10-helix) with temperature” value in data set [3] was “overall retained”. The “Lethal concentration CL” value in data set [4] (Bacillus CGMCC 1.0459, pH 7) is 17.68 µM; in data set [4] (inhibition-zone assay, 0.8% agar, 2 µL peptide per 2-mm well, peptide in 5 mM PB pH 7.0, overnight, Bacillus megaterium CGMCC 1.0459), greater than 10 µM; in data set [5] (CGMCC 1.0290, pH 7), 10.77 µM; in data set [5] (inhibition-zone assay, 0.8% agar, 2 µL peptide per 2-mm well, peptide in 5 mM PB pH 7.0, overnight, Micrococcus luteus CGMCC 1.0290), greater than 10 µM.
